# Experimental data: PubChem BioAssay (NCI)
# Where “and” joins values, the source holds several entries; their conditions need not be identical. Equal values may be shown once.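 Method: 48-hour compound exposure of cells in 96-well plates, five concentrations, linear interpolation of endpoints. Here, GI50 denotes the concentration required for 50% inhibition of growth. TGI denotes the concentration required for complete inhibition of growth.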 Where a SMILES comes first, the peptide text is derived from it.
# Experiments:
# Assay in all cases: inhibition of tumour cell growth, NCI panel, 48 h
# 786-0 renal = tested on: 786-0 renal
# A498 renal = tested on: A498 renal
# A549 NSCLC = tested on: A549 NSCLC
# BT-549 breast = tested on: BT-549 breast
# CAKI-1 renal = tested on: CAKI-1 renal
# HOP-62 NSCLC = tested on: HOP-62 NSCLC
# HOP-92 NSCLC = tested on: HOP-92 NSCLC
# K-562 leukemia = tested on: K-562 leukemia
# KM12 colon = tested on: KM12 colon
# MALME-3M melanoma = tested on: MALME-3M melanoma
# MOLT-4 leukemia = tested on: MOLT-4 leukemia
# SK-MEL-28 melanoma = tested on: SK-MEL-28 melanoma
# U251 CNS = tested on: U251 CNS
# UACC-257 melanoma = tested on: UACC-257 melanoma
# HS 578T breast = tested on: HS 578T breast
SMILES,TGI (786-0 renal) [µM],TGI (A498 renal) [µM],TGI (A549 NSCLC) [µM],TGI (BT-549 breast) [µM],TGI (CAKI-1 renal),TGI (HOP-62 NSCLC),TGI (HOP-92 NSCLC),TGI (K-562 leukemia) [µM],TGI (KM12 colon) [µM],TGI (MALME-3M melanoma) [µM],TGI (MOLT-4 leukemia) [µM],TGI (SK-MEL-28 melanoma) [µM],TGI (U251 CNS),TGI (UACC-257 melanoma) [µM],TGI (HS 578T breast) [µM],GI50 (BT-549 breast),GI50 (HOP-62 NSCLC),GI50 (K-562 leukemia),GI50 (MALME-3M melanoma)
CC(=O)NC(CO)C(=O)NC(Cc1ccc(O)cc1)C(=O)NCC(N)=O (stereo not drawn) (Ac-Ser-Tyr-Gly-NH2; configuration not given here),> 100,> 100,> 100,> 100,> 100 µM,> 100 µM,> 100 µM,> 100,> 100,> 100,> 100,> 100,> 100 µM,> 100,,,,,
N#CCN(Cc1ccccc1)[C@@H]1CCC[C@]1(O)C#Cc1ccc2c(c1)OCO2,29.2,35.1,34.1,,77.4 µM,30.8 µM,27 µM,60.4,35.4,34.3,57.1,33.3,33.9 µM,37.9,37.2,,,,
Cc1ccccc1NC(=O)CSc1nnc(Cc2ccccc2)o1,> 100,,> 100,,,> 100 µM,,> 100,> 100,> 100,> 100,> 100,> 100 µM,> 100,,,,,
CC(C)(C)N=c1n(C(C)(C)C)oc(=O)n1-c1ccccc1,> 50,> 50,> 50,,> 50 µM,> 50 µM,> 50 µM,> 50,> 50,> 50,> 50,> 50,> 50 µM,> 50,> 50,,,,
COc1ccc(/C=C(\Cl)c2ccc(OC)cc2)cc1,> 100,> 100,> 100,,> 100 µM,> 100 µM,> 100 µM,> 100,> 100,> 100,> 100,> 100,> 100 µM,> 100,,,,,
CC[C@H](C)[C@H]1NC(=O)[C@@H](NC(=O)[C@@H](CC(C)C)N(C)C(=O)C2CCCN2C(=O)[C@H](C)O)[C@@H](C)OC(=O)[C@H](Cc2ccccc2)N(C)C(=O)[C@@H]2CCCN2C(=O)[C@H](CC(C)C)NC(=O)[C@@H](C)C(=O)[C@H](C(C)C)OC(=O)C[C@@H]1O (stereo not given in full),0.0119,0.0508,,< 0.00625,,0.0639 µM,,> 62.5,< 0.00625,0.0213,> 62.5,0.00828,,< 0.00625,0.0114,,,,
COC1C(OC(N)=O)C(O)C(Oc2ccc3c(O)c(NC(=O)c4ccc(O)c(CC=C(C)C)c4)c(=O)oc3c2C)OC1(C)C (stereo not given),> 100,> 100,> 100,> 100,> 100 µM,> 100 µM,,> 100,> 100,> 100,> 100,> 100,> 100 µM,> 100,,,,,
CC(Nc1n[nH]c(=O)c2c1nnn2Cc1ccccc1)c1ccccc1 (stereo not given),30.1,,> 100,> 100,> 100 µM and 52.9 µM,> 100 µM and 86 µM,> 100 µM and 63.3 µM,> 100,> 100,> 100,> 100,> 100,> 100 µM and 88.7 µM,> 100,,> 100 µM and 37.5 µM,> 100 µM and 21.7 µM,> 100 µM and 22.8 µM,> 100 µM and 24.7 µM
CCCN(CCC)C(=O)c1c(Cl)c2cccnc2n2c(C)cnc12,> 100,> 100,> 100,,79.7 µM,> 100 µM,> 100 µM,> 100,> 100,> 100,> 100,> 100,,> 100,> 100,,,,
CC(=O)NC1C(OCc2ccccc2)OC(CO)C(O)C1OCC(=O)N1CCCC1C(=O)NC(CCC(=O)NCCCCCNc1c2ccccc2nc2cccc([N+](=O)[O-])c12)C(N)=O (stereo not given),0.924,0.345,0.137,,0.134 µM,0.125 µM,0.101 µM,0.0475,0.13,0.0425,4.55,0.11,0.206 µM,0.327,0.19,,,,
CCOC(=O)c1c(NC(=O)c2ccc(Br)cc2)sc2c1CCCC2,> 100,> 100,> 100,> 100,> 100 µM,> 100 µM,,> 100,> 100,,> 100,> 100,> 100 µM,> 100,> 100,,,,
c1ccc(CSC(SCc2ccccc2)c2ccc3c(c2)OCO3)cc1,> 10,> 10,> 10,,> 10 µM,> 10 µM,> 10 µM,> 10,> 10,> 10,> 10,> 10,> 10 µM,> 10,> 10,,,,
CN(C)Cc1[nH]c2ccccc2c1C(=O)c1ccccc1,> 100,,> 100,,> 100 µM,> 100 µM,> 100 µM,> 100,> 100,> 100,> 100,> 100,> 100 µM,> 100,,,,,
N#Cc1c(N2CCOCC2)ncn(-c2ccc(Cl)cc2)c1=O,> 100,> 100,> 100,> 100,> 100 µM,> 100 µM,> 100 µM,> 100,> 100,,> 100,> 100,> 100 µM,> 100,,,,,
CN(C)C(=O)Oc1ccc(C(=S)Nc2ccccc2)cc1Br,> 100,,> 100,68.7,> 100 µM,> 100 µM,,> 100,51.6,> 100,38.1,> 100,> 100 µM,74,> 100,,,,
COc1nc(C)nc2c1ncn2Cc1ccccc1,> 100,> 100,> 100,,> 100 µM,> 100 µM,53.9 µM,> 100,> 100,> 100,,> 100,> 100 µM,> 100,> 100,,,,
Cn1nc(C(=O)N2CC(CCl)c3c2cc([N+](=O)[O-])c2ccccc32)cc1NC(=O)Nc1cc(C(=O)N2CC(CCl)c3c2cc([N+](=O)[O-])c2ccccc32)nn1C (stereo not given),> 100,> 100,> 100,> 100,> 100 µM,> 100 µM,> 100 µM,> 100,> 100,> 100,> 100,> 100,> 100 µM,> 100,,,,,
